Here are results for 21 compounds from article PMC5851644, “Development of Potent Inhibitors of Receptor Tyrosine Kinases by Ligand-Based Drug Design and Target-Biased Phenotypic Screening” (Journal of Medicinal Chemistry, 2018).

Each structure is given as a SMILES string.

In general, IC50 refers to the concentration needed to halve the response being measured. Broadly, the EC50 is the midpoint of the concentration-response curve. The low end stands for greater potency, the high end for weaker potency.

Assay [1] concerns the target AKT. As to the kind of experiment: Kinase IC50, 33P radioisotope assay (Reaction Biology). Format: biochemical. The following applies: recombinant kinase, 10 μM ATP. As for the experimental part: The panel, which included the three members of the TAM family, was selected based on the selectivity profile frequently found for other AXL inhibitors.[9] Kinase inhibition studies were performed by Reaction Biology Corporation, USA, by measuring ^33P incorporation on the corresponding kinase substrate relative to DMSO.
To understand how these structural changes had affected the kinase selectivity of the new compounds, 12a–d were screened against the 12-member panel of kinases used for previous hits. As before, kinase inhibition screenings were performed using radioisotope based methods by Reaction Biology Corporation.
(§1) 6.2. Dose response cell viability assay
(§2) with 95 µl of fresh medium.
(§3) a separate 96-well intermediate plate.
(§4) containing cells. […] After 5 d, PrestoBlue™ cell
(§5) 6.3. Kinase screening assay

Assay [2] relates to BT474 cells (AXL–). As to the kind of experiment: Dose response cell viability assay (PrestoBlue, day 5). Type of assay: cell-based. Conditions: Homo sapiens, BT-474, 120 h, PrestoBlue at day 5.
Assay [3] concerns AXL-overexpressing mouse breast cancer cells (AXL+). The assay is described as above. Format: cell-based. Conditions: PrestoBlue at day 5.
In assay [4] the test system is MOLM-13 cells. The assay is described as above. Format: cell-based. The following applies: Homo sapiens, MOLM-13, 120 h; PrestoBlue at day 5. As for the experimental part:
as §1, §2, §3, §4, §5

Assay [5] concerns MV4-11 cells. The assay is described as above. The following applies: Homo sapiens, MV4-11, 120 h; PrestoBlue at day 5. Format: cell-based. As for the experimental part:
as §1, §2, §3, §4, §5

Assay [6] deals with T1, AXL (Homo sapiens, UniProt P30530).
T1 construct: purchased Reaction Biology Corporation
T1 sequence (P30530 26-894): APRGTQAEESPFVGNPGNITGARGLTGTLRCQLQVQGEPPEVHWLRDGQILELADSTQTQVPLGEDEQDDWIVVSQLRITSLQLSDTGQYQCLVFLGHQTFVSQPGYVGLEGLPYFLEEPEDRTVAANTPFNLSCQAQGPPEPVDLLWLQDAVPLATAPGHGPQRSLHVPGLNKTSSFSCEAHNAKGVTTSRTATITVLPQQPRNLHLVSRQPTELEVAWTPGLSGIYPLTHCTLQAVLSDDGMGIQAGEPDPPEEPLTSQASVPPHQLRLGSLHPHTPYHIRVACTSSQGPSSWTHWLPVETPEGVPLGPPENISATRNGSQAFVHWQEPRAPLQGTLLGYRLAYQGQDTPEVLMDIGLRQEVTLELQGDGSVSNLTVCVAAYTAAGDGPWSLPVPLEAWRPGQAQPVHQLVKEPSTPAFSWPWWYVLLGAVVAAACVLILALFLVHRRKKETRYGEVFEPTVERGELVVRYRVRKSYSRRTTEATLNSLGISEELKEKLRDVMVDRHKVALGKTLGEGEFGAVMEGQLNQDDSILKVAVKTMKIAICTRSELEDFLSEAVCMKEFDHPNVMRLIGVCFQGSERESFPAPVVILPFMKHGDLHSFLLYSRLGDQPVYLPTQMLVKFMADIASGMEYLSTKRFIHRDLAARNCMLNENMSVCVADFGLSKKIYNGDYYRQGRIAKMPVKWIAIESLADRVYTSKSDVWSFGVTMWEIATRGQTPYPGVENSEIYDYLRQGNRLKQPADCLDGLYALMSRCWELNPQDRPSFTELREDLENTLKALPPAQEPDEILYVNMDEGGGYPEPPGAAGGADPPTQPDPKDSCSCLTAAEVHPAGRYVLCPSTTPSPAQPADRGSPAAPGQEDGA
The following applies: cited from earlier work.

For the compound `Nc1nc(Nc2ccc3c(c2)CC[C@@H](N2CCCC2)CC3)nn1-c1cc2c(nn1)-c1ccccc1CCC2` [BGB324, reference compound], in assay [1], the IC50 is more than 10 µM.
Consider `CNc1ncc2c(-c3ccc(OC)cc3)nn(CC3CCCC3)c2n1` [Compound 7a], for which the EC50 in assay [2] is 24 µM; in assay [3] (Mus musculus, 120 h), 14.1 µM.
With `CNc1ncc2c(-c3ccc(OC)c(OC)c3)nn(CC3CCCC3)c2n1` [Compound 7b], the EC50 in assay [2] was determined as 26 µM; in assay [3] (Mus musculus, 120 h), 14.1 µM.
Regarding `CNc1ncc2c(-c3cccc(C(N)=O)c3)nn(CC3CCCC3)c2n1` [Compound 7e], the EC50 in assay [2] was 24.7 µM; in assay [3] (Mus musculus, 120 h), 16.3 µM.
With `CNc1ncc2c(-c3ccc(N4CCNCC4)nc3)nn(CC3CCCC3)c2n1` [Compound 7f], the IC50 in assay [1] is more than 10 µM.
For `CNc1ncc2c(-c3ccc(N4CCNCC4)nc3)nn(CC3OCCO3)c2n1` [Compound 7g], in assay [1], the 50% inhibitory concentration (IC50) was more than 10 µM. In addition, the 50% effective concentration (EC50) in assay [2] turned out to be 20.5 µM; in assay [3] it was 10.3 µM.
In the same order, the values of `CNc1ncc2c(-c3ccc(OC)cc3)nn(CC3OCCO3)c2n1` [Compound 7h] are more than 10 µM, 13.1 µM and 5.02 µM.
On to `CNc1ncc2c(-c3ccc(F)cc3)nn(CC3OCCO3)c2n1` [Compound 7i], for which the EC50 in assay [2] amounted to 60 µM; in assay [3] (Mus musculus, 120 h) it was 65.8 µM.
`CNc1ncc2c(-c3ccc(N4CCNCC4)nc3)nn(Cc3cn(Cc4ccccc4)nn3)c2n1` [Compound 10a]: the IC50 in assay [1] was more than 10 µM. For the same compound, the concentration for a half-maximal effect (EC50) in assay [2] came out at 3.62 µM; in assay [3] (Mus musculus, 120 h) it was 1.47 µM.
With `CNc1ncc2c(-c3ccc(N4CCNCC4)nc3)nn(Cc3cn(C4CCCC4O)nn3)c2n1` (centres unmarked) [Compound 10b], the EC50 came to 18.4 µM in assay [2] and 34.1 µM in assay [3] (Mus musculus, 120 h).
Regarding `CNc1ncc2c(-c3ccc(N4CCNCC4)nc3)nn(Cc3cn(-c4ccsc4C(=O)OC)nn3)c2n1` [Compound 10d], in assay [1], the IC50 is more than 10 µM. The EC50 is 6.49 µM in assay [2] and 1.83 µM in assay [3] (Mus musculus, 120 h).
On to `CNc1ncc2c(-c3ccc(N4CCNCC4)nc3)nn(Cc3cn(-c4ccc(OC)cc4)nn3)c2n1` [Compound 10f], for which the EC50 worked out at 16.8 µM in assay [2] and 3.7 µM in assay [3] (Mus musculus, 120 h).
Consider `CNc1ncc2c(-c3ccc(N4CCNCC4)cc3)nn(Cc3cn(Cc4ccccc4)nn3)c2n1` [Compound 12a], for which the IC50 in assay [1] is more than 10 µM. In addition, the concentration for a half-maximal effect (EC50) came to 32.3 µM in assay [2] and 39.7 µM in assay [3] (Mus musculus, 120 h).
For `CNc1ncc2c(-c3ccc(N4CCN(C)CC4)nc3)nn(Cc3cn(Cc4ccccc4)nn3)c2n1` [Compound 12b] the same measures were more than 10 µM, 25.7 µM and 6.91 µM.
As to `CCN1CCN(c2ccc(-c3nn(Cc4cn(Cc5ccccc5)nn4)c4nc(NC)ncc34)cn2)CC1` [Compound 12c], the EC50 is more than 100 µM in assay [2] and more than 100 µM in assay [3] (Mus musculus, 120 h).
Consider `CNc1ncc2c(-c3ccc(N4CCN(C(=O)C(C)(C)C)CC4)nc3)nn(Cc3cn(Cc4ccccc4)nn3)c2n1` [Compound 12d], for which, in assay [1], the concentration for half-maximal inhibition (IC50) is more than 10 µM. In addition, the EC50 amounted to 12.4 µM in assay [2] and 9.16 µM in assay [3] (Mus musculus, 120 h).
Consider `CNc1ccc(-c2nn(Cc3cn(Cc4ccccc4)nn3)c3nc(NC)ncc23)cn1` [Compound 12f], for which the 50% effective concentration (EC50) in assay [2] is more than 100 µM; in assay [3] (Mus musculus, 120 h), more than 100 µM. In assay [3], the “EC50 (AXL+ cells)” value is “completely inactive”.
As for `CNc1ncc2c(-c3ccc(N4CCN(C)CC4)nc3)nn(CC3CCCC3)c2n1` [Compound 13b], the 50% inhibitory concentration (IC50) in assay [1] is more than 10 µM. The results for the concentration for a half-maximal effect (EC50) in assay [4] and in assay [5] were 40 nM and 490 nM, respectively.
Take `CCN1CCN(c2ccc(-c3nn(CC4CCCC4)c4nc(NC)ncc34)cn2)CC1` [Compound 13c]: the IC50 in assay [1] is more than 10 µM. The EC50 in assay [4] is 940 nM; in assay [5], 3490 nM.
On to `CNc1ncc2c(-c3ccc(N4CCN(C(=O)C(C)(C)C)CC4)nc3)nn(CC3CCCC3)c2n1` [Compound 13d], for which the IC50 in assay [1] was more than 10 µM. Besides, the concentration giving a half-maximal response (EC50) was 1300 nM in assay [4] and 1440 nM in assay [5].
On to `COc1cc2c(Oc3ccc(NC(=O)C4(C(=O)Nc5ccc(F)cc5)CC4)cc3F)ccnc2cc1OCCCN1CCOCC1` [foretinib], for which the “reported to inhibit AXL at” value in assay [6] is recorded as 11 nM.
